Assay results: patent US10258072B2, “Environmentally friendly gelator using medium chain triglycerides and method of use” (Research Foundation of the City University of New York, priority 2014, dated 2019)

Legend:
[1] = Gelation test by vial inversion: gelation index and minimum gelation concentration (MGC); format: physicochemical; parameters: key to Gelation Index: I = Insoluble; PS = Partially Soluble
Experimental: (§1) Preparation and Characterization Molecular Gels. Gels were prepared by adding the solid glassy glycosides (10.0-50.0 mg gelator) to the desired solvent (1 mL). The mixture was then heated to disperse the gelator at five degrees below the boiling point of organic solvents, and at 125° C. for oils to produce a homogeneous sol. The sol was kept at this temperature for 10 minutes under constant agitation to fully disperse the gelator. The sol was then cooled to room temperature to allow for self-assembly and after a length of time (between 2-24 hours), the samples were inverted to confirm gel formation. The efficacy of gel formation was examined by determining the minimum gelation concentration (MGC) and gel-to-sol transition temperature (Tgel). Gel samples were diluted with solvent until after setting and vial inversion a gel, partial gel, or sol was formed. The gel transition temperature was determined by submersing a gel sample in an oil bath, and increasing the temperature until the gel flowed like a liquid, indicating the disassembly of the gelator structure. MGC was determined beginning from 5 wt. % samples (50 mg gelator in 1 mL solvent) or below the concentration of precipitation for gelators and diluting the samples until a sol is formed.

[2] = Gel-to-sol transition temperature (Tgel) in oil bath; format: physicochemical
Experimental: as §1, with “structure.” for “structure. MGC was determined beginning from 5 wt. % samples (50 mg gelator in 1 mL solvent) or below the concentration of precipitation for gelators and diluting the samples until a sol is formed.”

SMILES | Minimum Gelation Concentration ([1]; Coconut Oil (edible oil)) [wt. %] | Minimum Gelation Concentration ([1]; Grape seed Oil (edible oil)) [wt. %] | Minimum Gelation Concentration ([1]; Hazelnut Oil (edible oil)) [wt. %] | Minimum Gelation Concentration ([1]; Hexanes (organic solvent)) [wt. %] | Minimum Gelation Concentration ([1]; Jojoba Oil (edible oil)) [wt. %] | Minimum Gelation Concentration ([1]; Mineral Oil (organic solvent)) [wt. %] | Minimum Gelation Concentration ([1]; Red Palm Oil (edible oil)) [wt. %] | Minimum Gelation Concentration ([1]; Toluene (organic solvent)) [wt. %] | Gelation Index ([1]; Water (aqueous solvent)) | Tgel ([2]; 5 wt. % gel in Coconut Oil) | also measured
CCCCCCCC(=O)OC[C@H]1O[C@@H](Oc2ccc(CCC(C)=O)cc2)[C@H](O)[C@@H](O)[C@@H]1O [RKG8, ((2R,3S,4S,5R,6S)-3,4,5-trihydroxy-6-(4-(3-oxobutyl)phenoxy)tetrahydro-2H-pyran-2-yl) methyl octanoate] | 0.27 | 0.25 | 0.26 | 2.1 | 0.25 | 1.4 | 0.34 | 0.5 | I | 106-107 °C | Tgel ([2]; 5 wt. % gel in Olive Oil): 108-110 °C; Tgel ([2]; 5 wt. % gel in Toluene): 48-50 °C
CCCCCCCCCCCCCCCCCC(=O)OCC1OC(Oc2ccc(CCC(C)=O)cc2)C(O)C(O)C1O (stereo not drawn) [RKG18, raspberry ketone glucoside stearate] | 0.28 | 0.30 | 0.24 | 0.24 | 0.26 | 0.24 | 0.36 | 0.36 | I | 111-112 °C | 
CCCCCCCCC=CCCCCCCCC(=O)OCC1OC(Oc2ccc(CCC(C)=O)cc2)C(O)C(O)C1O (stereo not drawn) [RKGO, raspberry ketone glucoside oleate] | 0.54 | 0.66 | 0.56 |  | 0.48 | 0.80 | 0.72 | 0.73 |  |  | MGC ([1]; RKGO gels compared to saturated analogues): greater than 0.5 wt. %
CC(=O)CCc1ccc(O[C@@H]2O[C@H](CO)[C@@H](O)[C@H](O)[C@H]2O)cc1 [Raspberry ketone glucoside, reference compound] |  |  |  |  |  |  |  |  | PS |  | Gelation Index ([1]; Coconut Oil (edible oil)): I; Gelation Index ([1]; Grape seed Oil (edible oil)): I; Gelation Index ([1]; Hazelnut Oil (edible oil)): I; Gelation Index ([1]; Hexanes (organic solvent)): I; Gelation Index ([1]; Jojoba Oil (edible oil)): I; Gelation Index ([1]; Mineral Oil (organic solvent)): I; Gelation Index ([1]; Red Palm Oil (edible oil)): I; Gelation Index ([1]; Toluene (organic solvent)): PS
